From ChEMBL document CHEMBL3352452, “Phosphoinositide-3-kinase inhibitors: evaluation of substituted alcohols as replacements for the piperazine sulfonamide portion of AMG 511” (Bioorg Med Chem Lett, 2014) come the findings set out here.

Usually IC50 stands for the concentration at which inhibition is half-maximal. For orientation: efflux ratio means a quotient of directional permeabilities that is used to spot active efflux. Broadly, the Ki is the dissociation constant of the complex between target and ligand, obtained from inhibition or displacement. High values mean a looser hold on the target, low ones a stronger hold on the target. By bioavailability is commonly meant dose-corrected exposure relative to a reference, in per cent. A higher bioavailability goes with good availability. For orientation: fraction unbound means the share of the substance not bound to proteins or other matrix.

Data set [1] addresses Serine/threonine-protein kinase mTOR (Homo sapiens, UniProt P42345). Put plainly: Inhibition of recombinant N-terminally GST-tagged mTOR (1360 to 2549 aa) (unknown origin) assessed as inhibition of 27BP1 phosphorylation after 90 mins by TR-FRET assay. Background: In TR-FRET formats the signal depends on donor and acceptor labels being close together.
Data set [2] can be described thus: Intrinsic clearance in rat liver microsomes at 1 uM after 30 mins. The data set is classed as ADME. The following applies: read-out: CLH.
The next data set has as its system P-gp. Put plainly: Efflux ratio of permeability across pig LLC-PK1 cells stably over-expressing rat P-gp at 5 uM. The data set is classed as ADME, cell-based, Sus scrofa.
A short description of data set [3]: Volume of distribution at steady state in Sprague-Dawley rat at 1 mg/kg, iv and 2 mg/kg, po. It is filed as ADME, organism-based. The conditions noted are these: in vivo, read-out: Vdss.
Data set [4] addresses PI3-kinase p110-alpha/p85-alpha (Homo sapiens, UniProt P42336). Put plainly: Inhibition of human N-terminal poly-His tagged p110 alpha/ p85alpha expressed in Sf9 Baculovirus system after 20 mins by AlphaScreen assay. (In Alpha technology, singlet oxygen from a donor bead excites a nearby acceptor bead.)
A short description of data set [5]: Intrinsic clearance in human liver microsomes at 1 uM after 30 mins. It is filed as ADME. The conditions noted are these: read-out: CLH.
Data set [6] is described as follows: Clearance in Sprague-Dawley rat at 1 mg/kg, iv and 2 mg/kg, po. It is filed as ADME, organism-based. The following applies: in vivo.
Data set [7] can be described thus: Inhibition of PI3K-mediated Akt S473 phosphorylation in human U87MG cells after 2 hrs by cell-based assay. More on the design: species or system U-87MG ATCC. The conditions noted are these: U-87 MG.
The nature of data set [8]: Terminal half life in Sprague-Dawley rat at 1 mg/kg, iv and 2 mg/kg, po. The data set is classed as ADME, organism-based. The following applies: in vivo, read-out: beta t1/2 (converted).
Data set [9] in a line: Oral bioavailability in Sprague-Dawley rat at 2 mg/kg. The conditions noted are these: in vivo. The data set is classed as ADME, organism-based.
Data set [10] in a line: Fraction unbound in Sprague-Dawley rat plasma at 1 mg/kg, iv and 2 mg/kg, po. The data set is classed as ADME, organism-based.
In data set [11] the test system is Mus musculus. Put plainly: Inhibition of HGF-induced PI3K-mediated Akt phosphorylation at Ser473 in female CD1 nude mouse liver at 10 to 30 mg/kg, po administered 6 hrs prior HGF treatment measured after 5 mins by electrochemical luminescence immunoassay. The data set is classed as functional, organism-based.
In data set [12] the test system is Mus musculus. Put plainly: Inhibition of HGF-induced PI3K-mediated Akt phosphorylation at Ser473 in female CD1 nude mouse liver compound administered orally 6 hrs prior HGF treatment measured after 5 mins by electrochemical luminescence immunoassay. It is filed as functional, organism-based.

Calls of active or inactive are those of the source. No cut-off for these calls is given here.

Sequence of PI3-kinase p110-alpha/p85-alpha (P27986 whole entry): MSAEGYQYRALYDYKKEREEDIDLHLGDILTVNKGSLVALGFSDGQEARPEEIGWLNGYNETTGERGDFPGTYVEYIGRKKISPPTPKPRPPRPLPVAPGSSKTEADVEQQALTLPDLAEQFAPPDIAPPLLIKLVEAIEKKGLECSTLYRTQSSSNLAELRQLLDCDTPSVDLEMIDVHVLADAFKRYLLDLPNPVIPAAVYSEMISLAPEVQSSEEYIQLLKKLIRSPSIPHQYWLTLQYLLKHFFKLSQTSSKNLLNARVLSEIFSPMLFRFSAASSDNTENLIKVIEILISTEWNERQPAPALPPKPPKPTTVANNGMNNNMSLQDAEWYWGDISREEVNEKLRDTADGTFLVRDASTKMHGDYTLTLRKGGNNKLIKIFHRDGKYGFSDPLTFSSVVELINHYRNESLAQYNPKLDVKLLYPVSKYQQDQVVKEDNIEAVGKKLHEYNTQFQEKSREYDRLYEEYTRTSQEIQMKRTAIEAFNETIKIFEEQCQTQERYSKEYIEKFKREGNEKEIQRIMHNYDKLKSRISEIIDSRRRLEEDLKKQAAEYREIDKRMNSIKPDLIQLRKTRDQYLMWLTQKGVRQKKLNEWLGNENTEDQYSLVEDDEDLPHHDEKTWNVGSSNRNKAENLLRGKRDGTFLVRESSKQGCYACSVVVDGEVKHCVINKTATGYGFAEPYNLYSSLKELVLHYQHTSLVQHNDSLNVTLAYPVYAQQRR
Sequence of PI3-kinase p110-alpha/p85-alpha (P42336 whole entry): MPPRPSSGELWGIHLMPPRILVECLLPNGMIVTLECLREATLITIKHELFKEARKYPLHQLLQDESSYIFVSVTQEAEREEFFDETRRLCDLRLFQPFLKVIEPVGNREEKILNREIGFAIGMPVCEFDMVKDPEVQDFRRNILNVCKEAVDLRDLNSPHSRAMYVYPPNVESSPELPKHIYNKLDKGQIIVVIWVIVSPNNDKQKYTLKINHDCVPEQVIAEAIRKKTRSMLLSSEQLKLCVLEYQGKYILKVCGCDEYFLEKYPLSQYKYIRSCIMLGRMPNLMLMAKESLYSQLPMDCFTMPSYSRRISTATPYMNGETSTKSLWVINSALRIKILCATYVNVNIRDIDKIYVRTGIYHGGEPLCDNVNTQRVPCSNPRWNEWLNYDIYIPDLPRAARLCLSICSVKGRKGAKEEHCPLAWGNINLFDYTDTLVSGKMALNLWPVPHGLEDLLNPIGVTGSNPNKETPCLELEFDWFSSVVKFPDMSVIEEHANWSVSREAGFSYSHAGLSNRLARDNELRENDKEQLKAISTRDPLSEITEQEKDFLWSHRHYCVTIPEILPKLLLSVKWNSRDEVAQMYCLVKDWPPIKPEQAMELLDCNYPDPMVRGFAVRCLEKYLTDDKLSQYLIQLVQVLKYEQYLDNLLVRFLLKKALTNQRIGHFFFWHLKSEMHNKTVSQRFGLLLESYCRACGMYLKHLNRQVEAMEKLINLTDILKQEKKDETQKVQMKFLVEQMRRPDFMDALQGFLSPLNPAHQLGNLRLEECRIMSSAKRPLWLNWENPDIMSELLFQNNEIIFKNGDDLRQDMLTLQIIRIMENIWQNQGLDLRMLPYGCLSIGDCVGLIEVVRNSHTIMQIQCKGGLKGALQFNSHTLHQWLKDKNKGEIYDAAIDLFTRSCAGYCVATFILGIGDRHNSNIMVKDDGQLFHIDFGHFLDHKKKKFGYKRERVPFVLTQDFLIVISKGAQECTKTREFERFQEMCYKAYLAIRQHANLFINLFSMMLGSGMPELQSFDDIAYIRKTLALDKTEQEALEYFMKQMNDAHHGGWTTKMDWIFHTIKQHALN

Regarding `COc1cc(Nc2ncc(C(C)(C)O)cc2-c2nc(C)nc(N)n2)cnc1OC`, the IC50 worked out at 10600 nM in data set [1] and 10 nM in [7]. The microsomal CLint at 1 µM in data set [2] and in [5] was less than 14 µL/min/mg each time. The efflux ratio at 5 µM in the data set with P-gp stood at 25. For the same molecule, the Vd in [3] stood at 4.2 L/kg. For the same molecule, the Ki in data set [4] stood at 30 nM. Also, in data set [6], the clearance was 21.7 mL/min/kg. Besides, in data set [8], the half-life is 4.8 h.
`COc1ncc(Nc2ncc([C@@H](C)O)cc2-c2nc(C)nc(N)n2)cc1F`: the results for the IC50 in [1] and in data set [7] were more than 25000 nM and 20 nM, respectively. Further, the microsomal CLint at 1 µM in data set [2] came out at 45 µL/min/mg; in [5], 22 µL/min/mg. Besides, in data set [4], the Ki was found to be 40 nM.
On to `COc1ncc(Nc2ncc([C@H](C)CO)cc2-c2nc(C)nc(N)n2)cc1F`, for which, in data set [1], the IC50 was determined as 11100 nM. The microsomal CLint at 1 µM in [2] came out at 36 µL/min/mg; in [5], 14 µL/min/mg. The molecule further returned a Ki in [4] of 26 nM.
On to `COc1ncc(Nc2ncc([C@@H](C)CO)cc2-c2nc(C)nc(N)n2)cc1F`, for which the IC50 in data set [1] was more than 15000 nM. Also, the figures for the microsomal CLint at 1 µM in [2] and in data set [5] were 37 µL/min/mg and less than 14 µL/min/mg, respectively. The affinity in [4] corresponds to a Ki of 40 nM.
As for `COc1ncc(Nc2ncc(C3(O)CC3)cc2-c2nc(C)nc(N)n2)cc1F`, the IC50 in data set [1] is 3700 nM; in [7], 18 nM. Moreover, the microsomal CLint at 1 µM in data set [2] stood at 79 µL/min/mg; in data set [5], 39 µL/min/mg. The affinity in [4] corresponds to a Ki of 16 nM.
Regarding `COc1cncc(Nc2ncc(C(C)(C)O)cc2-c2nc(C)nc(N)n2)c1`, the IC50 in data set [1] is 2100 nM. Besides, the microsomal CLint at 1 µM was determined as 19 µL/min/mg in data set [2] and 17 µL/min/mg in [5]. Also, the inhibition constant (Ki) in data set [4] was 89 nM.
In the same order, the values of `COc1ncc(Nc2ncc(C(C)(C)CO)cc2-c2nc(C)nc(N)n2)cc1F` are more than 17000 nM, 34 µL/min/mg, 34 µL/min/mg and 40 nM.
As for `CCc1cc(Nc2ncc(C(C)(C)O)cc2-c2nc(C)nc(N)n2)cnc1OC`, the IC50 is 15800 nM in data set [1] and 470 nM in data set [7]. For the same molecule, the Ki in data set [4] stood at 469 nM.
Consider `Cc1nc(N)nc(-c2cc(C(C)(C)O)cnc2Nc2cncc(S(=O)(=O)c3ccccc3)c2)n1`, for which the IC50 in data set [1] is 6700 nM. In data set [4], this molecule registered a Ki of 224 nM.
For the molecule `COc1ncc(Nc2ncccc2-c2nc(C)nc(N)n2)cc1F`, in [1], the IC50 was more than 22000 nM. In addition, the microsomal CLint at 1 µM in data set [2] came to 36 µL/min/mg; in data set [5], 99 µL/min/mg. The molecule further showed an inhibition constant (Ki) in data set [4] of 48 nM.
For the molecule `COc1ncc(Nc2ncc(C(C)(C)O)cc2-c2nc(C)nc(N)n2)cc1C(C)C`, the half-inhibitory concentration (IC50) in [1] is more than 25000 nM; in [7] it was 414 nM. In addition, the Ki in [4] turned out to be 153 nM.
`COc1ncc(Nc2ncc(C(C)(C)O)cc2-c2nc(C)nc(N)n2)cc1C(F)(F)F`: the IC50 in data set [1] was more than 25000 nM.
For the molecule `COc1ncc(Nc2ncc([C@H](C)O)cc2-c2nc(C)nc(N)n2)cc1F`, the IC50 is more than 25000 nM in [1] and 26 nM in data set [7]. The microsomal CLint at 1 µM in [2] and in data set [5] was less than 14 µL/min/mg throughout. In addition, the affinity in data set [4], expressed as Ki, was 48 nM.
Take `COc1ncc(Nc2ncc(C(C)(C)O)cc2-c2nc(C)nc(N)n2)cc1C`: the IC50 in data set [1] was 7800 nM; in [7] it was 49 nM. For the same molecule, the microsomal CLint at 1 µM in [2] was 22 µL/min/mg; in [5], less than 14 µL/min/mg. The molecule further returned an inhibition constant (Ki) in data set [4] of 118 nM.
Take `COc1ccc(Nc2ncc(C(C)(C)O)cc2-c2nc(C)nc(N)n2)cn1`: the figures for the IC50 in data set [1] and in [7] were 790 nM and 48 nM, respectively. Further, the results for the microsomal CLint at 1 µM in data set [2] and in data set [5] were 19 µL/min/mg and less than 14 µL/min/mg, respectively. The affinity in data set [4], expressed as Ki, was 89 nM.
Take `COc1ncc(Nc2ncc(C(O)C(F)(F)F)cc2-c2nc(C)nc(N)n2)cc1F` (racemic): in [1], the 50% inhibitory concentration (IC50) amounted to 2200 nM. For the same molecule, the microsomal CLint at 1 µM in data set [2] is 34 µL/min/mg; in data set [5], 18 µL/min/mg. In data set [4], this molecule yielded a Ki of 30 nM.
For `COc1ncc(Nc2ncc(C(C)(C)O)cc2-c2nc(C)nc(N)n2)cc1F`, the IC50 in [1] came out at 7800 nM. The microsomal CLint at 1 µM in data set [2] is 23 µL/min/mg; in data set [5], less than 14 µL/min/mg. For the same molecule, the bioavailability in data set [9] was found to be 37%. Further, the Vd in data set [3] was found to be 1.7 L/kg. Further, the affinity in data set [4] corresponds to a Ki of 23 nM. Moreover, in data set [10], the fraction unbound stood at 0.06. Besides, the inhibition result with Mus musculus [11] is “Active”. Besides, the inhibition entry with Mus musculus [12] was “Dose-dependent effect”. This molecule also had a clearance in data set [6] of 18.3 mL/min/kg. In addition, in [8], the half-life was 3.1 h.
Take `Cc1nc(N)nc(-c2cc(C(C)(C)O)cnc2Nc2cncc(F)c2)n1`: in data set [1], the IC50 came to 2500 nM. The values for the microsomal CLint at 1 µM in [2] and in data set [5] were 15 µL/min/mg and less than 14 µL/min/mg, respectively. Besides, in data set [4], the Ki stood at 87 nM.
Take `COc1ncc(Nc2ncc([C@@H](C)N3CCN(S(C)(=O)=O)CC3)cc2-c2nc(C)nc(N)n2)cc1F`: the microsomal CLint at 1 µM in [2] was found to be 20 µL/min/mg. In [10], this molecule returned a fraction unbound of 0.08. This molecule also showed a clearance in data set [6] of 7.5 mL/min/kg. Further, the half-life in data set [8] was 3.3 h.
As for `Cc1nc(N)nc(-c2cc(C(C)(C)O)cnc2Nc2cncc(S(C)(=O)=O)c2)n1`, the IC50 in [1] is more than 16000 nM; in [7], 1160 nM. Moreover, the microsomal CLint at 1 µM in data set [2] and in data set [5] was less than 14 µL/min/mg in each case.
In the case of `COc1ncc(Nc2ncc(CO)cc2-c2nc(C)nc(N)n2)cc1F`, the half-inhibitory concentration (IC50) is more than 15000 nM in data set [1] and 44 nM in data set [7]. Besides, the microsomal CLint at 1 µM in [2] was determined as 51 µL/min/mg. In addition, in data set [4], the Ki turned out to be 56 nM.
